# Patent US9018414B2, “Substituted 3-phenylpropionic acids and the use thereof” (Bayer Intellectual Property GmbH, priority 2009, dated 2015)
# System: recombinant guanylate cyclase reporter cell line
# Assay: Action at recombinant guanylate cyclase reporter cell line (CHO reporter cell)
# Type: cell-based
# Settings: MEC = minimal effective concentration; read-out: sGC-activating activity in the CHO reporter cell in vitro, MEC
# Procedure: The cellular action of the compounds according to the invention is determined at a recombinant guanylate cyclase reporter cell line, as described in F. Wunder et al., Anal. Biochem. 339, 104-112 (2005).
row,Compound,minimal effective concentration
1,"CC(C(=O)O)C(C)c1ccc(F)c(NC(=O)[C@H](c2ccc(Cl)cc2)[C@@H](C)C(F)(F)F)c1 (stereo partly drawn) [Example 50, threo-3-(3-{[(2S,3R)-2-(4-chlorophenyl)-4,4,4-tri-fluoro-3-methylbutanoyl]amino}-4-fluorophenyl)-2-methylbutanoic acid]",0.03 µM
2,"CC(Cc1ccc(F)c(NC(=O)C(c2ccc(Cl)cc2)[C@@H](C)C(F)(F)F)c1)C(=O)O (stereo partly drawn) [Example 37, 3-(3-{[(3R)-2-(4-Chlorophenyl)-4,4,4-trifluoro-3-methylbutanoyl]amino}-4-fluorophenyl)-2-methylpropanoic acid]",0.01 µM
3,C[C@H]([C@H](C(=O)Nc1cc(C2(CC(=O)O)CCC2)ccc1Cl)c1ccc(Cl)cc1)C(F)(F)F [Example 90],0.001 µM
4,"CCCC(CC(=O)O)c1ccc(Cl)c(NC(=O)[C@H](c2ccc(Cl)cc2)[C@@H](C)C(F)(F)F)c1 (stereo partly drawn) [Example 81, 3-(4-Chloro-3-{[(2S,3R)-2-(4-chlorophenyl)-4,4,4-trifluoro-3-methylbutanoyl]amino}phenyl)-hexanoic acid]",0.0003 µM
5,CC(C(C(=O)Nc1cc(C[C@H](C)C(=O)O)ccc1Cl)c1ccc(CC(F)(F)F)cc1)C(F)(F)F (stereo partly drawn) [Example 99],0.01 µM
6,"C[C@H]([C@H](C(=O)Nc1cc(C2(CC(=O)O)CC2)ccc1F)c1ccc(Cl)cc1)C(F)(F)F [Example 18, (+)-[1-(3-{[(2S,3R)-2-(4-Chlorophenyl)-4,4,4-trifluoro-3-methylbutanoyl]amino}-4-fluorophenyl)-cyclopropyl]acetic acid]",0.01 µM
